For this experiment, the system named is Subject B site (forearm microconduit). In words: Lidocaine applied on forearm microconduit site, anesthetic effect (Example 3). The class given is in vivo, human. The following applies: 3% lidocaine applied on Subject B microconduit site.

Turning to `CCN(CC)CC(=O)Nc1c(C)cccc1C` [lidocaine], the anesthetic effects result is given as “No discernible anesthetic effects were observed”.

The values above are taken from patent US7597692B2, “Microscission processes and procedures” (Massachusetts Institute of Technology, priority 2000, dated 2009).
